Laboratory results as given in patent US12168929B2, “Quantifying zonal flow in multi-lateral wells via taggants of fluids” (Saudi Arabian Oil Company, priority 2023, dated 2024).
Converted amounts (≈) assume the structure as drawn.

What was measured:
[1] = Solubility of Lumogen F dyes in organic solvents (toluene); format: physicochemical; conditions: organic solvent or mixture
[2] = cited from earlier work
[3] = Methanol solubility of LR versus non-polar crude oil fractions; format: physicochemical; conditions: non-polar crude oil fractions showed poor MeOH solubility
Text: To enhance the detection sensitivity further for LR, the fluorescent non-polar fractions of crude oil coeluted with LR during the chromatography may be removed or partially removed from the resulting effluent mixtures. While the polar components of crude oil can be effectively separated using the gravity column chromatography over silica gel with 100% DCM, the separation of the non-polar crude oil components remains a challenge because of its similar polarity with LR, identified by the Rf value on TLC. Therefore, explored was the second step of purification and isolation of the product by utilizing the solubility difference between LR and the non-polar crude oil components. […] Therefore, in subsequent work, DCM from the resulting effluent was evaporated and then the dark viscous residues were re-dissolved in 1 mL of MeOH followed by sonication for 30 seconds.

Row | Compound | solubility [1] [µg/mL] | solubility in organic solvents [2] | other results
1 | CC(C)COC(=O)c1ccc2c3ccc(C#N)c4c(C(=O)OCC(C)C)ccc(c5ccc(C#N)c1c52)c43 [LY, bis(2-methylpropyl) 4,10-dicyanoperylene-3,9-dicarboxylate] | < 1000 |  | 
2 | CCCCC(CC)CN1C(=O)c2ccc(OC)c3c(OC)ccc(c23)C1=O (centres unmarked) [LV, 2-(2-ethylhexyl)-6,7-dimethoxybenzo[de]isoquinoline-1,3-dione] | 10000 (≈ 27.1 mM) |  | 
3 | COc1cc(/C=C/C(=O)CC(=O)/C=C/c2ccc(O)c(OC)c2)ccc1O [curcumin] |  | soluble | 
4 | CC[N+](CC)=c1ccc2nc3c(cc(N)c4ccccc43)oc-2c1 [NB, Nile Blue] |  | relatively low | solubility in water ([2]; water): highly soluble
5 | CCN(CC)c1ccc2nc3c4ccccc4c(=O)cc-3oc2c1 [NR, Nile Red] |  |  | solubility in organic solvents such as DCM and toluene ([2]; DCM, toluene): highly soluble
6 | CC(C)c1cccc(C(C)C)c1N1C(=O)c2cc(Oc3ccccc3)c3c4c(Oc5ccccc5)cc5c6c(cc(Oc7ccccc7)c(c7c(Oc8ccccc8)cc(c2c37)C1=O)c64)C(=O)N(c1c(C(C)C)cccc1C(C)C)C5=O [LR, 7,18-bis[2,6-di(propan-2-yl)phenyl]-11,14,22,26-tetraphenoxy-7,18-diazaheptacyclo[14.6.2.2^2,5.0^3,12.0^4,9.0^13,23.0^20,24]hexacosa-1(22),2(26),3,5(25),9,11,13,15,20,23-decaene-6,8,17,19-tetrone] | 80000 (≈ 74.1 mM) |  | solubility in methanol (MeOH) [3]: moderately soluble
